Data from ChEMBL document CHEMBL1157539, “Thousands of chemical starting points for antimalarial lead identification” (Nature, 2010).

These molecules were tested on Plasmodium falciparum (assay: GSK_TCMDC: Inhibition of Plasmodium falciparum 3D7 in whole erythrocytes, using parasite LDH activity as an index of growth.). Conditions: not given.
Assay type: functional, organism-based

Structure (SMILES)	XC50
CN(Cc1cnc2nc(N)nc(N)c2n1)c1ccc(C(=O)N[C@@H](CCC(=O)O)C(=O)O)cc1 [METHOTREXATE]	178 nM

Same assay, conditions: Plasmodium falciparum, 3D7

Structure (SMILES)	XC50
CCS(=O)(=O)N1CCN(c2nc(-c3ccccc3)nc(COC)c2Cc2ccccc2F)CC1	1450 nM
N=c1c2nc(-c3c(F)cccc3Cl)[nH]c(=O)c2[nH]c(=O)n1-c1ccccc1	678 nM
COc1ccc(CN2CCC(N3CCc4cc(NC(=O)c5cc(C)on5)ccc43)C2)cc1Cl (stereo not given)	939 nM
CCCCCCCN1CC[C@@H](CCCc2ccnc3ccc(OC)cc23)[C@@H](CCN)C1	748 nM
O=C(Nc1ccc(Br)cc1)c1cc(Br)ccc1NS(=O)(=O)c1ccc(C(F)(F)F)cc1	180 nM
COc1ccc2ncc(C#N)c(CCN3CCC(NCc4ccc5c(c4)NC(=O)CO5)CC3)c2c1	588 nM
COc1ccc(CN2CCN(CCOC(c3ccc(F)cc3)c3ccc(F)cc3)CC2)c(O)c1	733 nM
O=C(NOCCCCOc1ccc(Cl)c(Cl)c1)c1ccccc1	183 nM
Cc1c(Oc2ccc(-n3ccnc3)cc2)ncnc1N1CCC2(CC1)CNCc1ccccc12	887 nM
O=S(=O)(c1ccc(OCc2ccc(Cl)cc2)cc1)c1cc2c(c(-c3ccc(F)cc3)c1)CCN(CC1CC1)CC2	1120 nM
O=[N+]([O-])c1cccc(CNCC2CCN(Cc3ccc4ccccc4c3)CC2)c1	876 nM
CCn1c(-c2nonc2N)nc2c(-c3cccc(NC(=O)Nc4cccc(C#N)c4)c3)ncc(OCCCN)c21	669 nM
FC(F)(F)c1ccc2[nH]c(-c3ccc(-c4cccc(CNCC5CCCO5)c4)cc3)nc2c1 (stereo not given)	250 nM
O=C(CCCCCNC(=O)c1ccc(O)c(-c2ccc(Cl)c(Cl)c2)c1)NCCc1ccc(Cl)c(Cl)c1	756 nM
O=C(N[C@@H](Cc1ccccc1)C(=O)NC1CCCCCC1)c1ccc(O)c(-c2cccc(C(F)(F)F)c2)c1	735 nM
NC1CCCN(Cc2ccc(-c3cccc(-c4nc5ccccc5[nH]4)c3)cc2)C1 (stereo not given)	721 nM
CCOC(=O)C(C(=O)OCC)c1nc(C)ns1	471 nM
COc1cccc(CN2CCC(C(=O)Nc3ccc(-c4nc5ccccc5[nH]4)cc3)CC2)c1	627 nM
Cc1ccc(Nc2nc(C)cc(NC3CC3)n2)cc1	1220 nM
COc1cc(F)c2nccc([C@@H](O)CN3CCC(NCc4cc5c(cc4F)OCCO5)CC3)c2c1	679 nM
Cc1cc(OCCCNc2nc(NCCc3ccc(O)cc3)nc(N3CCNCC3)n2)c(Cl)c(C)c1Cl	956 nM
c1ccc2c(Nc3ccc(Oc4ccc(Nc5c6ccccc6nc6ccccc56)cc4)cc3)c3ccccc3nc2c1	518 nM
CCOc1cc2c(cc1S(=O)(=O)c1ccc(COc3ccc(C(F)(F)F)cc3)cc1)CCN(C)CC2	1020 nM
O=C(/C=C/c1ccc(-c2nc3ccc(Cl)cc3[nH]2)cc1)NC1CCN(Cc2ccccc2)CC1	610 nM

Structure (SMILES)	XC50
O=C(Cc1cccc(Cl)c1)Nc1cccc(-c2c[nH]c3nc(Nc4cccc(O)c4)ncc23)c1	731 nM
O=C(Nc1ccc(C(F)(F)F)cc1)c1ccc(S(=O)(=O)NC2CCN(Cc3ccccc3)C2)cc1 (stereo not given)	618 nM
COc1ccc(Cl)cc1NC(=O)Nc1ccc2c(c1)CCN(C1CCC1)CC2	814 nM
Cc1cc(N[C@@H](Cc2ccccc2)C(=O)NCCOc2ccccc2)nc(NCCc2ccccn2)n1	1520 nM
O=C(Nc1ccc(Cl)c(C(F)(F)F)c1)NC1CCN(CCCCCNC(=O)C2CC2c2ccc(Cl)c(Cl)c2)CC1 (stereo not given)	683 nM
CCNC[C@H]1CCCN1CCOc1ccc(-n2cnc3cc(-c4ccc(Cl)cc4)sc3c2=O)cc1OC	808 nM
O=C(Nc1cccc(-c2ccc(-c3nc4cc(C(F)(F)F)ccc4[nH]3)cc2)c1)Nc1ccc(F)c(F)c1F	259 nM
COc1cc2c(cc1S(=O)(=O)c1ccc(OCc3ccc(Cl)cc3)cc1)CCN(Cc1ccc(NC(C)=O)s1)CC2	919 nM
N#Cc1cccc(CN2CCCN(Cc3ccc(C(=O)Nc4ccc(Cl)cc4)cc3)CC2)c1	882 nM
Cc1cccc2nc(-c3ccc(-c4ccc(NC(=O)CN5CCN(C)CC5)cc4)cc3)[nH]c12	785 nM
N#Cc1ccc2[nH]cc(C(=O)CCCCCN(Cc3ccccc3)Cc3ccccc3)c2c1	785 nM
Cc1cccc(CNc2nc(C)cc(N[C@@H](Cc3ccccc3)C(=O)NCc3cccc(F)c3)n2)c1	1040 nM
COc1ccc(NC(=O)c2cc(NC(=O)C3(N)CC3)c(=O)n(Cc3ccc(C(N)=O)cc3)c2)cc1	792 nM
Nc1c2c(nc3cc(NC(=O)c4ccc([N+](=O)[O-])cc4)ccc13)CCCC2	475 nM
CCCC(C)C(=O)N1CCOC(COCc2cccc(C(F)(F)F)c2)(c2ccc(Cl)cc2)C1 (stereo not given)	403 nM
COc1cc(OC)c(NC(=O)Nc2ccnc3ccccc23)cc1Cl	751 nM
Cc1ccc(NC(=O)c2cc([N+](=O)[O-])ccc2NCc2cccnc2)cc1Cl	1120 nM
COc1ccc2nccc([C@@H](O)CN3CCC(NCc4cc5c(F)ccc(F)c5[nH]4)CC3)c2c1	144 nM
O=[N+]([O-])c1ccc2c(-c3ccccc3)c(-c3ccccc3)n(O)c2c1	989 nM
CCCCc1ccc(-c2c(N)nc(N)nc2CC)cc1	954 nM
CC(=O)Nc1nc(C(=O)Nc2cccc(-c3ccc(-c4nc5cccc(C)c5[nH]4)cc3)c2)cs1	232 nM
O=C(Nc1ccc(-c2cccc(CN3CCC(O)CC3)c2)cc1)c1cccc(Cl)c1	826 nM
CN1CC=C(c2csc3ccc(NC(=O)Nc4ccc(-c5ccncc5)c(Cl)c4)cc23)CC1	681 nM
c1ccc(Oc2ccc(Nc3nncc4ccccc34)cc2)cc1	686 nM

Structure (SMILES)	XC50
O=C(NCCN1CCC(c2ncc(-c3ccccc3)o2)CC1)c1ccc(NC(=O)c2ccc(Cl)cc2)cc1	244 nM
Cc1ccc2[nH]c(C)cc(=NN=Cc3cccc(F)c3)c2c1	631 nM
O=C(Nc1ccccc1)N1CCC(CN2CCOC(c3ccccc3)(c3ccccc3)C2)CC1	206 nM
COc1ccccc1C1CCN(C2CCC(NC(=O)/C=C/c3cc(F)cc(C(F)(F)F)c3)CC2)CC1 (stereo not given)	901 nM
Cc1cc(C2CCN(CCCCNC(=O)c3ccc(NC(=O)c4ccc(Cl)cc4)cc3)CC2)c(C)cc1OCc1ccncc1	501 nM
O=C(NCc1cccc2ccccc12)C(c1cc2ccccc2o1)N1CCN(C(c2ccccc2)c2ccccc2)CC1 (stereo not given)	667 nM
CCc1c[nH]c2c(N3CCCC3=O)cc(C(=O)N[C@@H](Cc3ccccc3)[C@H](O)CNC(C)(C)c3cccc(OC)c3)cc12	192 nM
O=C(Nc1ccc([N+](=O)[O-])cc1Cl)c1cc(Br)cc(Cc2ccccc2)c1O	1290 nM
COC(=O)[C@@H](NC(=O)[C@H](CC(C)C)Nc1ccc(C#N)c2ccccc12)c1ccc(O)cc1	788 nM
O=C1OC2(CN1CC1CCN(Cc3ccc(O)cc3Cl)C1)c1ccccc1-c1ccccc12 (stereo not given)	1170 nM
CN(Cc1cnc2nc(N)nc(N)c2n1)c1ccc(C(=O)N[C@@H](CCC(=O)O)C(=O)O)cc1 [METHOTREXATE]	100 nM
CCN(CCCN1CCCCC1)c1cc(C)nc(Nc2cccc(OC(F)(F)F)c2)n1	229 nM
Oc1ccc(Cl)cc1CN1CCC(CCOC(c2ccccc2)c2ccccc2)CC1	649 nM
Cc1nccn1CCNC(=O)CN1CCC2(CCC1=O)CC(=O)c1ccccc1O2 (stereo not given)	802 nM
CC(=O)Nc1ccc(OCCN(CC(C)C)c2ccc(C#N)c(C(F)(F)F)c2)c(Cl)c1	786 nM
COc1ccc2nccc([C@@H](O)CN3CCC(NC[C@H](Cc4ccccc4)NC(=O)OC(C)(C)C)CC3)c2c1	228 nM
O=C1NC(C(=O)Nc2ccccc2)C(c2ccccc2)S1 (stereo not given)	168 nM
CCCCC(O)c1cc(O)c2c(c1)OC(C)(C)CC2C1=CCN(Cc2ccc3ccccc3c2)CC1 (stereo not given)	970 nM
O=C(NCc1ccccc1)NC1CCN(c2ccnc3cc(Cl)ccc23)C1 (stereo not given)	158 nM
Clc1ccc(/N=C(/NCCCCCCCN/C(=N\c2ccc(Cl)cc2)Nc2ccc(Cl)cc2)Nc2ccc(Cl)cc2)cc1	321 nM
O=C(NC1CCCc2ccccc21)[C@@H]1CCCN1C(=O)c1ccc(O)c(-c2cccc([N+](=O)[O-])c2)c1 (stereo not given in full)	678 nM
O=S(=O)(c1ccc(Oc2ccccc2)cc1)N(CCC(O)(C(F)(F)F)C(F)(F)F)Cc1cccc(O)c1	491 nM
CCN(CC)CCNC(=O)c1ccc(NC(=O)c2cc3c(C)nn(-c4ccc(Cl)cc4)c3s2)cc1	253 nM
Cc1ccc(C)c(-n2c(SCC(=O)Nc3ccc(C(N)=O)cc3)nnc2-c2cccc(Cl)c2)c1	845 nM

Structure (SMILES)	XC50
COc1cc2c(cc1N1CCN(C)CC1)N(C(=O)Nc1ccc(-c3ccncc3)c(Cl)c1Cl)CC2	608 nM
CCCNc1nc(Nc2ccccc2C)nc2ccccc12	887 nM
N#Cc1ccc(N(CCOc2ccc3c(c2)CCC(=O)N3)Cc2ccccc2C(F)(F)F)cc1C(F)(F)F	763 nM
COc1cc2nc(N3CCC(C(N)=O)CC3)nc(NCc3ccccc3)c2cc1OC	887 nM
CC1(C)NC(N)=NC(=N)N1OCCCOc1cc(Cl)ccc1Cl	3.2 nM
NC(=O)c1ccccc1OCC(=O)Nc1cccc(-c2ccc(-c3nc4cc(C(F)(F)F)ccc4[nH]3)cc2)c1	647 nM
OCCN1CCN(Cc2ccc(-c3cccc(-c4nc5cc(C(F)(F)F)ccc5[nH]4)c3)cc2)CC1	642 nM
CS(=O)(=O)CCNCc1nc(-c2ccc3c(Nc4ccc(F)c(O)c4)ccnc3c2)cs1	820 nM
O=C(Nc1cccc(-c2cccc(-c3nc4cc(F)ccc4[nH]3)c2)c1)c1ccoc1	333 nM
CN(C)CCOc1ccc(-c2cc(-c3ccnc(N)n3)c(-c3ccc(Cl)c(O)c3)o2)cc1	978 nM
CCCCc1nc2nc(N)nc(N)c2cc1CCC	308 nM
Cc1ccc(S(=O)(=O)c2nc(S(=O)(=O)c3ccccc3)sc2NCC2CCCO2)cc1 (stereo not given)	1020 nM
N=c1c2c(n(Cc3ccccc3)c3c1CCC3)CCCC2	867 nM
COc1ccc(NC(=O)N2CCCN(CCCCCNC(=O)/C=C/c3ccc(Cl)cc3)CC2)cc1Cl	814 nM
N#Cc1ccc(N2CCN(C(=O)c3cccc(-c4noc(C(F)(F)F)n4)c3)CC2)nc1	220 nM
O=C(CNC(=O)c1ccc(O)cc1)Nc1ccc(-c2cccc(-c3nc4cc(C(F)(F)F)ccc4[nH]3)c2)cc1	859 nM
COc1ccc(CCN2CCC(CN(C)Cc3cnn(-c4ccccc4)c3)CC2)cc1	1160 nM
COc1cccc(CN2CCCC(COC(c3ccc(F)cc3)c3ccc(F)cc3)C2)c1O (stereo not given)	330 nM
CN(c1ccccc1)S(=O)(=O)c1cccc(NC(=O)c2ccc(-n3ccnc3)c([N+](=O)[O-])c2)c1	1130 nM
COC(=O)c1ccc(OCC(C)NCC(O)c2cccc(C(F)(F)F)c2)cc1 (stereo not given)	838 nM
CC1CCc2sc(-c3nnc(SC(C)C(=O)N4CCCC4)o3)cc2C1 (stereo not given)	878 nM
CC1(C)NC(N)=NC(=N)N1OCCOc1ccc2ccccc2c1	3.2 nM
